Where a SMILES comes first, the peptide text is derived from it. Where no end group is shown, it is not given here.

The record followed here is US5491129A, “Synthetic peptides derived from vitronectin and pharmaceutical compositions comprising them” (Yeda Research and Development Co. Ltd., priority 1992, dated 1996).

Assay [1] has as its target T1, PAI-1 (Homo sapiens, UniProt P05121). Kind of assay: Competition ELISA: binding of vitronectin onto immobilized activated PAI-1. More on the design: purchased American Diagnostica, New York. The conditions noted are these: for level of inhibition achieved: FIG. 7, vitronectin 0.5 μg/ml, increasing peptide concentrations. How it is done:
Protein concentration was determined by the method described by Bradford, 1976. The binding of vitronectin to immobilized PAI-1 was conducted as described by Salonen et al., 1989. The activation of PAI-1 by sodium dodecylsulfate was carried out as described by Katagiri et al., 1988. Amino acid sequencing was performed with an Applied Biosystem 475A sequencer.
Each of the synthetic peptides shown in Scheme I and each of the peptides containing amino acids with a D configuration (BP7, BP8 and BP14) was tested by a competition ELISA assay for its ability to inhibit the binding of vitronectin to immobilized activated PAI-1. The first screening (FIGS. 3A-3D) was carried out with an identical molar concentration (25 μM) of the peptides. In view of a possible variability in such tests (mainly due to some variability in the activated PAI-1 coating of the plates), a control of vitronectin alone was run alongside in each plate for reference.
The various synthetic peptides (all 50 μM) were dissolved in 50 μl of a buffer composed of PBS, Tween 20 (0.01%), polyethylene-glycol (average M.W. 8 kDa) (4% w/v). Each of the samples was added to a microtiter well coated with SDS-activated PAI, prepared as described by Katagiri et al., 1988. After an incubation of 30 min at 22° C., aliquots (50 μl) of a vitronectin solution (at various concentrations) in the same buffer were added to each well. This was followed by an incubation for 2 hrs at 37° C. The amount of bound vitronectin was determined with specific rabbit anti-human Vn antibodies (1:1000 dilution), followed by a β-galactosidase-linked protein A and using o-nitrophenyl-β-D-galactopyranoside (ONPG) as a substrate. The enzymatic reaction was allowed to proceed and the absorbance at 405+490 nm was measured. Each point in the graphs represents the mean of triplicate determinations. […]
For orientation: In an ELISA, binding on a coated surface is turned into a signal by an enzyme label.

For assay [2], the target named is T1, PAI-1. As to the kind of experiment: Release of PAI-1 activity by endothelial cells in culture. The assay is classed as cell-based. As to conditions: human endothelial cell system, 6 hours, control = 100%. How it is done: PAI-1 is determined in the supernatant of HUVEC cells according to the method of Chmielewska et al., 1983. Briefly, cells are cultured in semiconfluent way with or without ECM. The culture medium is changed for Hank's balanced salt solution with 2% FCS and the tested substances with or without added plasmin (5 μg/ml) are diluted in this buffer and incubated with the cells for 6 hours. Samples from the cell supernatant are assayed for the PAI-1 activity.
For the PAI-1 assay, the cell supernatant is incubated with a fixed amount of tPA (40 U/ml) and the residual activity of the tPA is determined by a substrate composed of plasminogen (0.1μg/ml), chromogenic substrate (S-2251) and stimulator (Kabi, Sweden). After incubation with the substrate, O.D. is measured at 405 run and the amount of the inhibitor is calculated from calibration curve. PAI-1 antigen may also be determined with commercial kits.

T1 sequence (P05121 24-402): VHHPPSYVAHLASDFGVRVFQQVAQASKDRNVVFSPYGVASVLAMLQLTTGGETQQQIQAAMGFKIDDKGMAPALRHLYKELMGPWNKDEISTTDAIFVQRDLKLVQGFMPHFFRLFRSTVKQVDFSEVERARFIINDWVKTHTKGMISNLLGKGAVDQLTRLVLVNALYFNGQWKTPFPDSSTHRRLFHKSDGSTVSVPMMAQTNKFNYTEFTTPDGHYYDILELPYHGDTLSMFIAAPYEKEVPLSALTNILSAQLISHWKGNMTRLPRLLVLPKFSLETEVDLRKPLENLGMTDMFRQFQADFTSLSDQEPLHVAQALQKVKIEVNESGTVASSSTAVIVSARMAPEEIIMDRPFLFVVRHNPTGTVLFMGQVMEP

`N=C(N)NCCC[C@H](NC(=O)[C@H](Cc1ccc(O)cc1)NC(=O)CNC(=O)[C@H](CCCCN)NC(=O)[C@H](CCCNC(=N)N)NC(=O)[C@H](CC(N)=O)NC(=O)[C@H](CCCNC(=N)N)NC(=O)[C@H](Cc1c[nH]cn1)NC(=O)[C@H](CCCNC(=N)N)NC(=O)[C@H](Cc1ccccc1)NC(=O)[C@H](CCCNC(=N)N)NC(=O)[C@H](CCC(N)=O)NC(=O)[C@H](CCCCN)NC(=O)[C@@H](N)CCCCN)C(=O)N[C@@H](CO)C(=O)N[C@@H](CCC(N)=O)C(=O)O` [BP6] (H-KKQRFRHRNRKGYRSQ-OH): at PAI-1 [1], the “level of inhibition achieved” value was “approximately 65%”. At PAI-1 [2] (1 × 10^-5 M), this compound registered a PAI-1 activity decrease below control at 10 µM of 19.5%. The PAI-1 activity decrease below control at 1 µM on PAI-1 [2] (1 × 10^-6 M) was 36.5%. On PAI-1 [2] (1 × 10^-7 M), this compound returned a PAI-1 activity decrease below control at 0.1 µM of 19%. The PAI-1 activity decrease below control at 0.01 µM on PAI-1 [2] (1 × 10^-8 M) is 19%. This compound also showed a PAI-1 activity decrease below control at 0.33 µM at PAI-1 [2] (3.3 × 10^-7 M) of 39%.

For the compound `N=C(N)NCCC[C@H](NC(=O)CNC(=O)[C@H](CCCNC(=N)N)NC(=O)[C@H](CO)NC(=O)[C@H](Cc1c[nH]cn1)NC(=O)CNC(=O)[C@H](CCCNC(=N)N)NC(=O)[C@H](CCC(N)=O)NC(=O)[C@H](CO)NC(=O)[C@H](CCCNC(=N)N)NC(=O)[C@H](Cc1ccc(O)cc1)NC(=O)CNC(=O)[C@@H](N)CCCCN)C(=O)O` [BP5] (H-KGYRSQRGHSRGR-OH), at PAI-1 [1], the “level of inhibition achieved” value was “approximately 65%”.

In the case of `C[C@H](NC(=O)[C@H](CCCNC(=N)N)NC(=O)[C@H](CO)NC(=O)[C@@H]1CCCN1C(=O)[C@H](CCCNC(=N)N)NC(=O)[C@H](CCCNC(=N)N)NC(=O)[C@H](CO)NC(=O)[C@H](CC(N)=O)NC(=O)[C@H](CCC(N)=O)NC(=O)[C@H](CC(N)=O)NC(=O)[C@H](CCCNC(=N)N)NC(=O)CNC(=O)[C@H](CCCNC(=N)N)NC(=O)[C@H](CO)NC(=O)[C@H](Cc1c[nH]cn1)NC(=O)CNC(=O)[C@H](CCCNC(=N)N)NC(=O)[C@H](CCC(N)=O)NC(=O)[C@@H](N)CO)C(=O)O` [BP4] (H-SQRGHSRGRNQNSRRPSRA-OH), at PAI-1 [1], the “level of inhibition achieved” value is “approximately 65%”. For the same compound, on PAI-1 [2] (1 × 10^-5 M, read-out: PAI activity % above control (mean)), the PAI-1 activity increase over control at 10 µM turned out to be 29%. The PAI-1 activity increase over control at 1 µM at PAI-1 [2] (1 × 10^-6 M, read-out: PAI activity % above control (mean)) turned out to be 47%. The PAI-1 activity increase over control at 0.1 µM at PAI-1 [2] (1 × 10^-7 M, read-out: PAI activity % above control (mean)) stood at 0%. Also, the PAI-1 activity increase over control at 0.33 µM at PAI-1 [2] (3.3 × 10^-7 M, read-out: PAI activity % above control (mean)) was determined as 17%.

Turning to “BP7: same sequence as BP6 (K348-Q363) but the underlined residues in Scheme II have D configuration (KKQRFRHRNRKGYRSQ; also: some residues are D-form, positions not given here (underlining not shown))”, the “binding to immobilized PAI-1 (effect on vitronectin binding)” value in the assay with PAI-1 [1] (D-configuration peptides, 1-10 μM, FIG. 8) was “bind to immobilized PAI-1”.
